pIC50: −log10 of the molar value.
Experiments:
[1] = tested on: CK1 isoforms; settings: literature (refs 25,26); read-out: reported IC50 for inhibition of CK1 isoforms; cited from earlier work
[2] = target: CK1α (Homo sapiens, UniProt P48729); assay: In vitro kinase assay of RXR immunoprecipitated complexes with inhibitor in the assay mixture; type: biochemical; settings: RXR immunoprecipitated complexes from Compound 1-treated HEK293 Flag-RXR cells; read-out: IC50 for inhibition of phosphorylation of RXR and p160
Method: To determine that the kinase activity which phosphorylates RXR and p160 in the RXR complex is only contributed by CK1α, in vitro kinase assays of the RXR immunoprecipitated complexes in the presence of various concentrations of a known CK1 specific inhibitor CK1-7 (25) was performed.
The immunoprecipitated complexes were re-suspended in 15 μl of kinase assay buffer (30 mM Tris-HCl, pH 7.4 and 10 mM MgCl2). The kinase reactions were initiated by adding 2 μl of 50 μM [γ-32P]ATP (10 μCi) into the immunocomplexes, followed by incubation at 30° C. with shaking for 20 min, and terminated by adding 6 μl of 4× SDS sample loading buffer. After heating at 100° C. for 5 min, the reaction mixtures were resolved by 4-12% SDS-PAGE. The incorporation of ^32P into RXR and other proteins was determined by subjecting the gel to autoradiography.

[3] = tested on: DT40RXR cells; assay: Activation of caspases 3 and 9; type: cell-based
Method: (§1) Caspase activities were measured following manufacturer's protocols and presented as fold increase in relative to control.
(§2) The sensitivity of the wild-type cells and the cells stably expressing RXR to RXR agonist treatment.

[4] = target: T1, RXRα (Homo sapiens, UniProt P19793); assay: Ligand-dependent recruitment of protein kinase to Flag-RXRα immunocomplexes (immunoprecipitation, in vitro kinase assay); type: cell-based; settings: for recruitment of protein kinase to RXR immunocomplexes: transfected HEK293 cells, ligands at 10^-6 M, 15 minutes
T1 construct: expressed in transfected cells; host or cells: HEK293
T1 sequence (P19793 1-462): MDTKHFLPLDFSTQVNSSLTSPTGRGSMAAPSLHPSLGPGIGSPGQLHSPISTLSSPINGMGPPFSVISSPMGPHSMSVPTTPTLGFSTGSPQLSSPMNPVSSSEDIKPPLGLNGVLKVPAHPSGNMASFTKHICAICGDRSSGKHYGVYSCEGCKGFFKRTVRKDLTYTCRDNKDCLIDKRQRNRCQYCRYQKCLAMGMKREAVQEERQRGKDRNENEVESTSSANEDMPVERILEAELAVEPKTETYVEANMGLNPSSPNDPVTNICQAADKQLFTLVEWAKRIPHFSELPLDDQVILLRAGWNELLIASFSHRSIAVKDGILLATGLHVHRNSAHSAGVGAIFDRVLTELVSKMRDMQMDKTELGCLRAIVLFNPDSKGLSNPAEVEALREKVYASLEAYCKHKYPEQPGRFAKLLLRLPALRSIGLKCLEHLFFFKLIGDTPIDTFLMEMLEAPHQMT
Description: Total cell lysates were immunoprecipitated with anti-Flag antibody (M2). An aliquot of the immunocomplexes were used for the in vitro kinase reaction with [γ-^32P]ATP and separated on SDS-PAGE. The phosphorylated proteins were detected by autoradiography (right panel). To show the presence of equal amounts of RXR in the immunoprecipitates, additional aliquots of the immunocomplexes were subjected to immunoblotting with a polyclonal antibody (D20) against RXR (left panel).
In vitro kinase reaction assay was performed.

[5] = tested on: RXRα homodimers; assay: Transactivation assay, pRXRE-Luc (DR-1) reporter in CV-1 cells; type: cell-based; settings: 10^-8 M, 16 hr, CV1 cells
Method: (§3) FIGS. 4A, 4B and 4C display evidence of transactivation by RXRα homodimers or RXRα:RARα heterodimers is not modulated by CK1α. For the left panel, CV1 cells were cotransfected with pFlag-RXRα, reporter plasmid pRXRE-Luc, β-galactosidase expression vector, plus increasing amount of CK1α expression vector (lane 1 and 2: 0 ng; lane 3: 50 ng; lane 4: 100 ng; lane 5: 200 ng), or sense strand CK1α or double-strand RNAi CK1α, or sense strand CK1ε or double-strand RNAi CK1ε. […] Data are presented as the activity of luciferase normalized to that of β-galactosidase activity, which served as an internal control for transfection efficiency and are the mean of three independent experiments with triplicates for each. For the middle panel, CV1 cells were cotransfected with pFlag-RXRα, pRAR-V5, reporter plasmid pRARE-Luc, β-galactosidase expression vector, plus sense strand CK1α or double-strand RNAi CK1α. […] Data are presented as the activity of luciferase normalized to that of β-galactosidase activity and are the mean of three independent experiments with triplicates for each. CK1α could efficaciously be depleted in CV-1 cells by small double-strand RNAi, judged by immunoblotting the total cell lysates with anti-CK1α antibodies (left panel).
CK1α is the smallest in the CK1 family. […] The role of CK1α in transactivation by RXR homodimers and RXR:RAR heterodimers was determined. […]

[6] = tested on: DT40RXR and JurkatRXR cells; assay: Cell death/growth inhibition in RXR-overexpressing versus parental cells; type: cell-based; settings: JurkatRXR vs parental cells, 3 days
Method: FIGS. 1A, 1B and 1C show RXR and RXR agonist dependent cell growth inhibition: DT40, DT40RXR, Jurkat, and JurkatRXR cells (5×10^3 cells/ml) were treated with various doses of AGN19424 for 3 days (the left two panels). Viable cells were counted and were presented as percentage of control (cells without treatment).
Overexpressing activated RXR may mediate growth inhibitory effects in some human carcinoma cells (17). To confirm that the effects of RXR agonists were mediated by RXR proteins and explore the molecular mechanism, two RXR stably expression cell lines were generated using B lymphoma cell (DT40) and T lymphoma cells (Jurkat cells), which are named DT40RXR and JurkatRXR (FIG. 1A, left panel).
as §2

[7] = tested on: Jurkat-pSupCK1α cells; assay: Apoptotic populations in CK1α-suppressed Jurkat cells; type: cell-based; settings: 3 days
Method: FIGS. 4J, 4K, 4L and 4M show effects of depletion of CK1α on Jurkat cells: A cell line (Jurkat-pSupCK1α) in which CK1α expression is suppressed by stably expressing SiRNA CK1α was generated from Jurkat cells (left panel). The effect of COMPOUND-1 (4 days) on growth inhibition of Jurkat and Jurkat-pSupCK1α cells was measured (the second panel).
Based on this observation, CK1α negative regulation RXR-mediated apoptosis. HEK293RXR and Jurkat cells were used to deplete the expression of endogenous CK1α by stably transfecting CK1α RNAi expression vector. Although the depletion of endogenous CK1α in both cell lines was not very efficient, (with a 30% to 50% decrease for the expression of CK1α achieved in both cell lines) after decreasing the CK1α expression, both cell lines were becoming very sensitive to the treatment of RXR agonist in term of the cell growth inhibition (FIGS. 4J, 4K, 4L and 4M). Apoptotic cell populations of Jurkat-pSupCK1 (containing the CK1α RNAi construct) is increased compared to the parental cell lines in the presence of RXR agonist (FIGS. 4J, 4K, 4L and 4M).

[8] = tested on: JurkatRXR cells; assay: Apoptosis by FACS DNA content analysis (propidium iodide); type: cell-based; settings: 10 nM, 3 days, 11.9% without agonist
Method: (§4) Cells having a DNA content less than the G1 population were considered as apoptotic cells.
(§5) For immunoblotting, proteins from cell lysates or immunoprecipitates were subjected to separation on SDS-PAGE (38). The resolved polypeptides were transferred to PVDF membrane and analyzed by immunoblotting (39). The targeted proteins were detected using the enhanced chemiluminescence immunodetection system (Amersham). DNA content analysis by FACS was performed on FACScan™ (Becton Dickinson) as described (40).

[9] = tested on: DT40RXR cells; assay: as above; type: cell-based; settings: 10 nM, 3 days, 10.4% without agonist
Method: as §4, §5

[10] = tested on: DT40 cells; assay: as above; type: cell-based; settings: 10 nM, 3 days, cells with DNA content less than G1, 3.5% without agonist
Method: as §4, §5

[11] = tested on: Jurkat cells; assay: as above; type: cell-based; settings: 10 nM, 3 days, 2.8% without agonist
Method: as §4, §5

[12] = tested on: DT40 cells; assay: Activation of caspases 3 and 9; type: cell-based
Method: as §1, §2

[13] = tested on: RXR-associated kinase; assay: Effect of signalling pathway modulators on RXR-associated kinase activity in RXR transfected cells; type: cell-based; settings: cell treatment: anisomycin 50 μM; pathway inhibitors 1 hour; insulin 30 minutes
Method: (§6) The cells were stimulated with anisomycin (50 μM) and COMPOUND-1 (10^−7 M) as indicated, then the cell lysates were subjected to immunoprecipitation and in vitro kinase assay (bottom panel).
(§7) Activation of stress pathways lead to the phosphorylation of RXR (22,23), and MKK4/SEK1 is reported to associate with and phosphorylate RXR directly (23). […] Anisomycin treatment led to phosphorylation of RXR resulting in an up-shift of the RXR band on SDS-PAGE (22).
To further study the effect of signaling transduction pathways on the RXR-associated kinase activity, RXR transfected cells were incubated with inhibitors of the PI3 kinase (wortmannin), p42/44 MAPK (PD98059), or p38 MAPK pathways (SB202190 or SB203580) for 1 hour or stimulated with insulin or 10% serum for 30 minutes. RXR complexes were then isolated and the in vitro kinase assays were performed in the usual manner.

[14] = tested on: RXR:RAR heterodimers; assay: Transactivation assay, pRARE-Luc reporter in CV-1 cells; type: cell-based; settings: CV-1 cells cotransfected with RXRα and RARα; 10^-7 M, 16 hr
Method: as §3
Similar transfection experiments were also performed using pRARE-Luc as reporter with cotransfection of RXRα and RARα. […]

[15] = tested on: MKK4; assay: MKK4 phosphorylation (stress pathway activation) by immunoblotting; type: cell-based; settings: HEK293 transfected with RXR or RXR plus MKK4
Method: as §6, §7, §5

CK1α, sequence (P48729 whole entry, one chain of several): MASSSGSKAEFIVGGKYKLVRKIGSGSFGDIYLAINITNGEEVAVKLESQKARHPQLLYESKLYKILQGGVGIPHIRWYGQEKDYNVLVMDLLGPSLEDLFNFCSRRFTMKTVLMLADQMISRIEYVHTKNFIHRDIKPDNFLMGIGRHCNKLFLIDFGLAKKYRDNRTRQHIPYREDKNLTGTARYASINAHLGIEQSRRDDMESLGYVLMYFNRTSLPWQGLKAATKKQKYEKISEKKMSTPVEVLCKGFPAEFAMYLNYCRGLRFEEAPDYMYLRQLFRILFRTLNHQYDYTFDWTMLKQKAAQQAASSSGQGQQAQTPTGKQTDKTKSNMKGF

## NCCNS(=O)(=O)c1ccc(Cl)c2ccncc12 [CK1-7, N-(2-amino-ethyl)-5-chloroisoquinoline-8-sulfonamide]
[1]
  pIC50: 4.00 to 5.00
[2]
  pIC50: ~4.52

## CC(/C=C/C1CC1(C)c1ccc2c(c1)C(C)(C)CCC2(C)C)=C\C(=O)O (stereo not shown) [Compound 1]
[3]
  activation of caspases 3 and 9: activated
[4]; immunoprecipitation in absence of Compound 1, added later to kinase reaction mixture
  kinase activity in Flag-RXR immunoprecipitated complex when ligand added only to the in vitro kinase reaction: could not be detected
[4]
  recruitment of protein kinase to RXR immunocomplexes: contained the kinase that could phosphorylate RXR and the 160 kDa protein
[5]
  DR-1 luciferase expression: greatly stimulated
[6]
  efficacy in cell death/growth inhibition on overexpression of RXR: dramatically increase the efficacy
[7]
  apoptotic populations: dramatic increase of apoptotic populations
[8]
  apoptotic cells: 36.4%
[9]
  apoptotic cells: 57.3%
[10]
  apoptotic cells: 4.5%
[11]
  apoptotic cells: 3.4%

## OO [Compound H2O2, hydrogen peroxide, reference compound]
[3]
  activation of caspases 3 and 9: could activate caspases 3 and 9
[12]
  activation of caspases 3 and 9: could activate caspases 3 and 9

## COc1cccc(-c2cc(=O)c3ccccc3o2)c1N [PD98059]
[13]
  effect on kinase activities in the RXR immunocomplexes: not influenced to a significant degree

## Oc1ccc(-c2nc(-c3ccncc3)c(-c3ccc(F)cc3)[nH]2)cc1 [SB202190]
[13]
  effect on kinase activities in the RXR immunocomplexes: not influenced to a significant degree

## C[S+]([O-])c1ccc(-c2nc(-c3ccncc3)c(-c3ccc(F)cc3)[nH]2)cc1 (stereo not shown) [SB203580]
[13]
  effect on kinase activities in the RXR immunocomplexes: not influenced to a significant degree

## C/C(=C\c1ccc(C(=O)O)cc1)c1ccc2c(c1)C(C)(C)CCC2(C)C [TTNPB, reference compound]
[14]
  activation of RXR:RAR heterodimers (pRARE-Luc): activated
[4]
  recruitment of protein kinase to RXR immunocomplexes: did not recruit the protein kinase

## COc1ccc(C[C@H]2NC[C@H](O)[C@H]2OC(C)=O)cc1 [anisomycin]
[15]
  phosphorylation of MKK4: increased phosphorylation of both endogenous and overexpressed MKK4
[13]
  effect on kinase activities in the RXR immunocomplexes: not affected by anisomycin treatment

## insulin: insulin used to stimulate RXR transfected cells for 30 minutes
[13]
  effect on kinase activities in the RXR immunocomplexes: not influenced to a significant degree
